Here are results for 4 compounds from US12303471B2, “Methods of treatment of temozolomide-resistant glioma using coenzyme Q10” (BPGbio, Inc., priority 2015, dated 2025).

Data set [1] relates to MDA-MB231 cells. Briefly: Propidium iodide (PI) and Annexin V flow cytometry cell death assay. The following applies: malonate 5 mM with Coenzyme Q10 155 μM or 310 μM, 72 hours; FIG. 5. The class given is cell-based. Here is the method:
MDA-MB231 cells were treated with Coenzyme Q10 and/or malonate as shown below: • 1. Untreated • 2. Malonate (5 mM) • 3.
At 72 hours post treatment, cell culture supernatant (containing detached apoptotic cells) and adherent cells were harvested by trypsinization, centrifuged at 500 g for 5 minutes, and the resulting pellets were washed in staining media (PBS, 0.5% FBS). Cells were co-stained with FITC conjugated anti-Annexin-V (1:100, Molecular Probes) to detect PS exposure on the outer membrane surface and Propidium Iodine (PI, 1:2500, Molecular Probes) in 200 μL binding buffer (Molecular Probes). After a 15 minute incubation in the dark, the percentage of Annexin V+/PI+ cells was analyzed using an Accuri C6 Flow Cytometer (BD Biosciences) and samples were run within one hour after staining.
The cells were rated as follows: • 1. PI-negative and Annexin V-negative: viable • 2. PI-negative and Annexin V-positive: early apoptosis • 3. PI-positive and Annexin V-positive: late apoptosis • 4. PI-positive and Annexin V-negative: dead.

For data set [2], the system named is TMZ-resistant glioblastoma. Nature of the data set: Coenzyme Q10 in TMZ-resistant glioblastoma in humans. The class given is in vivo. The following applies: 4% coenzyme Q10 nanosuspension, 24-, 48- or 96-hour infusion, monotherapy. Here is the method: The efficacy of Coenzyme Q10 in treating TMZ-resistant glioblastoma is evaluated in humans using Coenzyme Q10 monotherapy and Coenzyme Q10 in combination with chemotherapy. The Coenzyme Q10 is provided as a 4% coenzyme Q10 nanosuspension formulation as described in WO 2011/112900, the entire contents of which are expressly incorporated herein by reference. The study is designed with dosing schedules of a 24-hour infusion, 48-hour infusion, or 96-hour continuous infusion. This extended dosage schedule is intended to decrease Coenzyme Q10 Cmax values and maintain steady-state levels. Patient survival time and glioblastoma tumor status before, during, and after Coenzyme Q10 treatment is evaluated.

Data set [3] relates to mutant K-Ras-driven pancreatic cancer cell line MIA PaCa-2. Briefly: Coenzyme Q10 sensitivity (IC50/IC90) of MIA PaCa-2 cells. The class given is cell-based. The following applies: Homo sapiens. The protocol:
(§1) Oxygen consumption rate (OCR) was measured during various states of succinate-fueled mitochondrial respiration in the triple-negative breast cancer cell line MDA-MB231 and the mutant K-Ras-driven pancreatic cancer cell line MIA PaCa-2 treated with different concentrations of Coenzyme Q10. […] The assays were performed in permeabilized adherent cells using the Seahorse XF96 Analyzer. Cells were permeabilized with XF PMP reagent and put into mitochondrial State 3 by replacing the growth media with Mitochondrial Assay Solution (containing mannitol, sucrose, KH2PO4, MgCl2, HEPES, and EGTA) supplemented with succinate, rotenone (to block reverse electron transfer back to Complex I), and ADP. OCR was measured in State 3, and then again upon sequential injection of oligomycin and FCCP to induce State 4o (o=oligomycin) and State 3u (u=uncoupled).

Data set [4] deals with Rat C6 glioma cells. Briefly: Rat model of glioma (C6 glioma cell implantation). Type of data set: in vivo, Sprague-Dawley rats. The protocol:
The C6 glioma cells develop into a glioma-like tumor. The rats bearing C6 gliomas were treated twice per day with 5, 10, 25 or 50 mg/kg Coenzyme Q10 by intraperitoneal or subcutaneous injection. Coenzyme Q10 treatment was initiated 1 day (n=3), 4 days (n=14), or 8 days (n=3) after implantation of C6 glioma cells. Coenzyme Q10 treatment was continued twice daily until the rat died, or until 34 days after implantation of glioma cells. […] Four of the rats treated with Coenzyme Q10 survived for at least 50 days after implantation of the C6 glioma cells, while none of the untreated control rats survived more than 15 days after implantation. In fact, two of the rats treated with Coenzyme Q10 survived more than 100 days post implantation (see below and FIGS. 9 and 10). Of the four rats that were alive at Day 50, 1 received 10 mg/kg Coenzyme Q10 starting 4 days after implantation, and 3 received 50 mg/kg Coenzyme Q10 starting 4 days or 8 days after implantation.
Enlarged ventricles (hydrocephalus) were present 27 days post C6 implantation (FIG. 9A). At 34 days post-implantation, enlarged ventricles were stilled observed. In addition, there was a complex mass in the tumor area which was not clearly growing (FIG. 9B). Coenzyme Q10 treatment was discontinued at Day 34. […] At 27 days post C6 implantation, a complex mass was visible, but it was unclear if this mass represented a tumor or a scar (FIG. 10A). At 34 days post C6 implantation, a scar was visible at the site of implantation and improvement in the overall condition of the rat was observed that was not consistent with tumor growth (FIG. 10B).

In data set [5] the test system is MIA PaCa-2. Briefly: Oxygen consumption rate during succinate-fueled mitochondrial respiration, permeabilized cells, Seahorse XF96. The class given is cell-based. The following applies: 100, 137 or 274 μM Coenzyme Q10, State 3, State 4o, State 3u, FIG. 1. Here is the method: as §1
Data set [6] deals with MDA-MB231. Described as above. The class given is cell-based. The following applies: 100, 155 or 310 μM Coenzyme Q10, State 3, State 4o, State 3u, FIG. 1. The protocol: as §1
In data set [7] the test system is triple-negative breast cancer cell line MDA-MB231. Briefly: Coenzyme Q10 sensitivity (IC50/IC90) of MDA-MB231 cells. Type of data set: cell-based. The following applies: Homo sapiens, MDA-MB-231. Here is the method: as §1
The nature of data set [8]: Coenzyme Q10 plasma levels in rats. The class given is in vivo. The following applies: four days after treatment initiated. Here is the method: Coenzyme Q10 plasma levels were measured in the rats bearing C6 gliomas four days after Coenzyme Q10 treatment was initiated.
The test system of data set [9] is human U373 cells (TMZ-sensitive and TMZ-resistant GBM cells). Nature of the data set: TMZ-sensitive and TMZ-resistant U373 glioblastoma tumors in mice. The class given is in vivo. The following applies: intravenous single daily dose of 4% Coenzyme Q10, 50 mg/kg/day. From the text:
Equal numbers (1×10^7) of human U373 cells left untreated and thus sensitive (TMZ-sensitive) versus TMZ long-term treated (TMZ-resistant) GBM cells (see Calve et al., 2010, Neoplasia 12(9): 727-739, which is incorporated by reference herein in its entirety) are suspended in MATRIGEL® and injected into mice. Tumors are allowed to develop, and treatment is not initiated unless tumors are present.
Mice having tumors are randomized into 4 groups of 30 mice each as follows: • i. Group 1—No treatment, TMZ-sensitive • ii. Group 2—No treatment, TMZ-resistant • iii. Group 3—Intravenous single daily dose of 4% Coenzyme Q10, 50 mg/kg/day, TMZ-sensitive • iv. Group 4—Intravenous single daily dose of 4% Coenzyme Q10, 50 mg/kg/day, TMZ-resistant
Animals are observed for viability and tumor growth is monitored. Animal survival results are collected through day 400.

Data set [10] relates to MDA-MB231 cells. Briefly: CellTiter-Fluor viability assay, co-treatment with Coenzyme Q10 and Complex II inhibitors. The following applies: 5 μM Atpenin A5 with 0-1600 μM Coenzyme Q10, 72 h; FIG. 4.
Description: To assess whether the effects of Coenzyme Q10 on Complex II-mediated respiration are functionally linked to Coenzyme Q10-induced cytotoxicity, MDA-MB231 cells were co-treated with two inhibitors of Complex II (atpenin A5 and malonate) which act at separate sites in Complex II.
The viability of MDA-MB231 cells treated with atpenin A5 and Coenzyme Q10 or malonate and Coenzyme Q10 was determined by a CellTiter-Fluor viability assay (Promega, Cat. No. G6080). Briefly, cells were co-treated with 0, 25, 50, 100, 200, 400, 800 or 1600 μM Coenzyme Q10 and either 5 μM Atpenin A5 or 5 mM malonic acid for 72 h, and then assayed per the manufacture's protocol.
In data set [11] the test system is recurrent high-grade gliomas. The following applies: patients with recurrent high-grade gliomas; cited from earlier work.

As to `O=C(O)CC(=O)O` [malonate], the “effect on Coenzyme Q10-induced cell death” value in data set [1] is recorded as “attenuated Coenzyme Q10-induced cell death”.
Consider `COC1=C(OC)C(=O)C(CC=C(C)CCC=C(C)CCC=C(C)CCC=C(C)CCC=C(C)CCC=C(C)CCC=C(C)CCC=C(C)CCC=C(C)CCC=C(C)C)=C(C)C1=O` [Coenzyme Q10, 2-(3,7,11,15,19,23,27,31,35,39-decamethyltetraconta-2,6,10,14,18,22,26,30,34,38-decaenyl)-5,6-dimethoxy-3-methyl-cyclohexa-2,5-diene-1,4-dione], for which the “tumor growth relative to standard chemotherapy” value in data set [2] is “reduce tumor growth”. The IC50 stood at 137 µM in data set [3] and 155 µM in data set [7]. Further, the figures for the IC90 in data set [3] and in [7] were 274 µM and 310 µM, respectively. Moreover, the “condition of surviving rat, coronal sections” value in [4] (10 mg/kg twice daily i.p. from day 4, discontinued Day 34, 103 days post-implantation, FIG. 9C) is recorded as “appeared normal with possible scar tissue in the tumor area”; in data set [4] (50 mg/kg twice daily i.p. from day 4, 103 days after C6 implantation, FIG. 10C) it was “clinically normal”. Besides, the “rats alive at Day 50” value in data set [4] (10 mg/kg twice daily, starting 4 days after implantation) is reported as 1; in data set [4] (50 mg/kg twice daily, starting 4 days or 8 days after implantation) it was 3. The “rats that survived for at least 50 days after implantation of the C6 glioma cells” value in data set [4] (5, 10, 25 or 50 mg/kg twice per day intraperitoneal, n=20, no untreated control (n=33) survived more than 15 days) is reported as “Four”. The “rats that survived more than 100 days post implantation” value in [4] (Coenzyme Q10 twice daily intraperitoneal, n=20) is recorded as “two”. Further, the “succinate-fueled respiration (oxygen consumption rate)” value in data set [5] and in data set [6] was “significantly decreased by Coenzyme Q10 in a dose dependent manner” each time. Besides, the “dose that resulted in the highest Coenzyme Q10 plasma levels” value in [8] (5, 10, 25 or 50 mg/kg twice daily intraperitoneal, FIG. 12) is 25 mg/kg. The “Coenzyme Q10 plasma levels, intraperitoneal compared to subcutaneous injection” value in data set [8] (rats bearing C6 gliomas, 50 mg/kg twice daily, FIG. 11) is listed as “significantly higher”. The “glioblastoma tumor growth compared to control (untreated) animals” value in data set [9] is reported as “significantly reduced glioblastoma tumor growth”. The “survival compared to control (untreated) animals” value in data set [9] (through day 400) was “significantly increased survival”.
For `COc1[nH]c(=O)c(C(=O)[C@@H](C)C[C@H](C)[C@@H](Cl)CCl)c(O)c1OC` [atpenin A5], the “effect of co-treatment on Coenzyme Q10-induced cytotoxicity” value in data set [10] is “enhanced cytotoxicity”.
Regarding “Bevacizumab: monoclonal antibody against vascular endothelial growth factor (VEGF)”, in [11], the overall median survival result was “improved overall median survival” and the response rates was 32-62%.
